Earlier results as cited in US6077513A, “Drug for treatment of bilharziasis (Schistosomiasis)” (priority 1997, dated 2000).

How the values were obtained:
[1] = test system: isolated guinea pig ileum

CC1=C[C@@H]2[C@@H](CC1)[C@@](C)(O)CC[C@H]2C(C)C [T-Cadinol]
antibacterial effect (Staphylococcus aureus): bacterial lysis and subsequent fatal loss of intracellular components | smooth muscle relaxing effect [1]: concentration - dependent smooth muscle relaxing effect
